For assay [1], the target named is T1, TSPO (Homo sapiens, UniProt P30536).
T1 construct: Assays of [^3H]; host or cells: SCC-25 and SCC-15 human oral cancer cell lines
Nature of the assay: [3H]PK 11195 binding to membranes of SCC-25 cells, Scatchard analysis. The note with it: mean±SD, n=7. The procedure: (§1) Assays of [^3H] […] After 80 minute incubation at 4° C., the samples were filtered through Whatman CF/C filters using a vacuum system, washed three times with 4 ml of 5 mM ice cold phosphate buffer and placed in vials containing 4 ml of CytoScint™ (MP Biomedicals, Costa Mesa, Calif.). Radioactivity was counted after 12 hours with a liquid scintillation analyzer. Specific binding was obtained by subtracting non-specific binding from total binding.

The target of assay [2] is T1, TSPO. Nature of the assay: [3H]PK 11195 binding to membranes of SCC-15 cells, Scatchard analysis. The note with it: mean±SD, n=16. How it is done:
as §1

T1 sequence (P30536 whole entry): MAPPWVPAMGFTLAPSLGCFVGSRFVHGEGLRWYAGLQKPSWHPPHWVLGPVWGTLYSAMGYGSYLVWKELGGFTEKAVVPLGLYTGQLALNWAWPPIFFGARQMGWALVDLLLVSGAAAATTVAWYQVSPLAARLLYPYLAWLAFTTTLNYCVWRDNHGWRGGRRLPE

Turning to `CCC(C)N(C)C(=O)c1cc2ccccc2c(-c2ccccc2Cl)n1` (centres unmarked) [[^3H]PK 11195, PK 11195], the “Bmax (maximal binding capacity)” value is on record as 3133±643 fmoles/mg protein in assay [1] and 6956±549 fmoles/mg protein in assay [2].

The values are drawn from patent US9075060B2, “Methods for diagnosing oral or oral-pharyngeal cancer” (Technion Research & Development Foundation Limited, priority 2009, dated 2015).
